What was measured:
Test in all cases: relative viability (nuclei count vs DMSO), 5 days (fraction); higher = more cells survive
SW 1573 = system: SW 1573
Outline: (§1)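 Relative viability is defined as nuclei in treated wells over nuclei in vehicle wells. Duplicate plates were run and medians reported. Lung cancer cell lines in 1536-well plates were dosed by pin tool one day after seeding, with one drug or with a fixed anchor-drug dose plus five library-drug doses (not always all listed) in √10 steps, and nuclei were counted after 5 days.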

NCI-H2342 = system: NCI-H2342
Outline: as §1

NCI-H647 = system: NCI-H647
Outline: as §1

NCI-H522 = system: NCI-H522
Outline: as §1

HCC-78 = system: HCC-78
Outline: as §1

HOP-62 = system: HOP-62
Outline: as §1

NCI-H358 = system: NCI-H358
Outline: as §1

NCI-H2347 = system: NCI-H2347
Outline: as §1

NCI-H2126 = system: NCI-H2126
Outline: as §1

HCC-15 = system: HCC-15
Outline: as §1

PC-3 [JPC-3] = system: PC-3 [JPC-3]
Outline: as §1

NCI-H1915 = system: NCI-H1915
Outline: as §1

LC-2-ad = system: LC-2-ad
Outline: as §1

RERF-LC-KJ = system: RERF-LC-KJ
Outline: as §1

A-427 = system: A-427
Outline: as §1

LXF-289 = system: LXF-289
Outline: as §1

NCI-H1755 = system: NCI-H1755
Outline: as §1

NCI-H1734 = system: NCI-H1734
Outline: as §1

NCI-H1975 = system: NCI-H1975
Outline: as §1

NCI-H2228 = system: NCI-H2228
Outline: as §1

SK-LU-1 = system: SK-LU-1
Outline: as §1

Question: Which relative viability (SW 1573; first compound 0.0002 µM) does the source give for CC(=O)O[C@@]12CO[C@@H]1C[C@H](O)[C@@]1(C)C(=O)[C@H](O)C3=C(C)[C@@H](OC(=O)[C@H](O)[C@@H](NC(=O)OC(C)(C)C)c4ccccc4)C[C@@](O)([C@@H](OC(=O)c4ccccc4)[C@H]21)C3(C)C [Docetaxel] + Cc1cc(Nc2cc(N3CCN(C)CC3)nc(Sc3ccc(NC(=O)C4CC4)cc3)n2)n[nH]1 [Tozasertib] (partner 0.1 µM) here?
Answer: 0.24

Question: And the relative viability (SW 1573; first compound 0.000632 µM)?
Answer: 0.189

Question: What about the relative viability (SW 1573; first compound 0.002 µM) of the same compound?
Answer: 0.256

Question: And the relative viability (SW 1573; first compound 0.02 µM)?
Answer: 0.199

Question: What about the relative viability (NCI-H2342; first compound 0.0002 µM) of the same compound?
Answer: 0.584

Question: What about the relative viability (NCI-H2342; first compound 0.000632 µM) of the same compound?
Answer: 0.539

Question: And the relative viability (NCI-H2342; first compound 0.002 µM)?
Answer: 0.543

Question: And the relative viability (NCI-H2342; first compound 0.006325 µM)?
Answer: 0.466

Question: What about the relative viability (NCI-H2342; first compound 0.02 µM) of the same compound?
Answer: 0.297

Question: And the relative viability (NCI-H647; first compound 0.0002 µM)?
Answer: 0.258

Question: And the relative viability (NCI-H647; first compound 0.000632 µM)?
Answer: 0.339

Question: What about the relative viability (NCI-H647; first compound 0.002 µM) of the same compound?
Answer: 0.148

Question: And the relative viability (NCI-H647; first compound 0.006325 µM)?
Answer: 0.132

Question: What about the relative viability (NCI-H647; first compound 0.02 µM) of the same compound?
Answer: 0.103

Question: And the relative viability (NCI-H522; first compound 0.0002 µM)?
Answer: 0.559

Question: And the relative viability (NCI-H522; first compound 0.000632 µM)?
Answer: 0.451

Question: And the relative viability (NCI-H522; first compound 0.002 µM)?
Answer: 0.527

Question: What about the relative viability (NCI-H522; first compound 0.006325 µM) of the same compound?
Answer: 0.551

Question: And the relative viability (NCI-H522; first compound 0.02 µM)?
Answer: 0.585

Question: And the relative viability (HCC-78; first compound 0.0002 µM)?
Answer: 0.386

Question: And the relative viability (HCC-78; first compound 0.000632 µM)?
Answer: 0.436

Question: What about the relative viability (HCC-78; first compound 0.002 µM) of the same compound?
Answer: 0.278

Question: And the relative viability (HCC-78; first compound 0.006325 µM)?
Answer: 0.344

Question: What about the relative viability (HCC-78; first compound 0.02 µM) of the same compound?
Answer: 0.368

Question: What about the relative viability (HOP-62; first compound 0.0002 µM) of the same compound?
Answer: 0.353

Question: And the relative viability (HOP-62; first compound 0.000632 µM)?
Answer: 0.401

Question: And the relative viability (HOP-62; first compound 0.002 µM)?
Answer: 0.281

Question: And the relative viability (HOP-62; first compound 0.006325 µM)?
Answer: 0.277

Question: What about the relative viability (NCI-H358; first compound 0.0002 µM) of the same compound?
Answer: 0.114

Question: And the relative viability (NCI-H358; first compound 0.000632 µM)?
Answer: 0.112

Question: And the relative viability (NCI-H358; first compound 0.006325 µM)?
Answer: 0.137

Question: What about the relative viability (NCI-H358; first compound 0.02 µM) of the same compound?
Answer: 0.117

Question: And the relative viability (NCI-H2347; first compound 0.0002 µM)?
Answer: 0.511

Question: And the relative viability (NCI-H2347; first compound 0.000632 µM)?
Answer: 0.594

Question: What about the relative viability (NCI-H2347; first compound 0.002 µM) of the same compound?
Answer: 0.441

Question: And the relative viability (NCI-H2347; first compound 0.006325 µM)?
Answer: 0.293

Question: What about the relative viability (NCI-H2347; first compound 0.02 µM) of the same compound?
Answer: 0.268

Question: And the relative viability (NCI-H2126; first compound 0.0002 µM)?
Answer: 0.785

Question: And the relative viability (NCI-H2126; first compound 0.000632 µM)?
Answer: 0.45

Question: And the relative viability (NCI-H2126; first compound 0.002 µM)?
Answer: 0.359

Question: And the relative viability (NCI-H2126; first compound 0.006325 µM)?
Answer: 0.354

Question: What about the relative viability (NCI-H2126; first compound 0.02 µM) of the same compound?
Answer: 0.237

Question: What about the relative viability (HCC-15; first compound 0.0002 µM) of the same compound?
Answer: 0.391

Question: What about the relative viability (HCC-15; first compound 0.000632 µM) of the same compound?
Answer: 0.266

Question: And the relative viability (HCC-15; first compound 0.002 µM)?
Answer: 0.174

Question: And the relative viability (HCC-15; first compound 0.006325 µM)?
Answer: 0.239

Question: And the relative viability (HCC-15; first compound 0.02 µM)?
Answer: 0.135

Question: And the relative viability (PC-3 [JPC-3]; first compound 0.0002 µM)?
Answer: 0.851

Question: And the relative viability (PC-3 [JPC-3]; first compound 0.000632 µM)?
Answer: 0.78

Question: What about the relative viability (PC-3 [JPC-3]; first compound 0.002 µM) of the same compound?
Answer: 0.426

Question: What about the relative viability (PC-3 [JPC-3]; first compound 0.006325 µM) of the same compound?
Answer: 0.209

Question: And the relative viability (PC-3 [JPC-3]; first compound 0.02 µM)?
Answer: 0.118

Question: And the relative viability (NCI-H1915; first compound 0.0002 µM)?
Answer: 0.426

Question: And the relative viability (NCI-H1915; first compound 0.000632 µM)?
Answer: 0.322

Question: What about the relative viability (NCI-H1915; first compound 0.002 µM) of the same compound?
Answer: 0.247

Question: And the relative viability (NCI-H1915; first compound 0.006325 µM)?
Answer: 0.201

Question: And the relative viability (NCI-H1915; first compound 0.02 µM)?
Answer: 0.142

Question: And the relative viability (LC-2-ad; first compound 0.0002 µM)?
Answer: 0.487

Question: And the relative viability (LC-2-ad; first compound 0.000632 µM)?
Answer: 0.395

Question: And the relative viability (LC-2-ad; first compound 0.002 µM)?
Answer: 0.302

Question: What about the relative viability (LC-2-ad; first compound 0.006325 µM) of the same compound?
Answer: 0.37

Question: And the relative viability (RERF-LC-KJ; first compound 0.0002 µM)?
Answer: 0.525

Question: And the relative viability (RERF-LC-KJ; first compound 0.000632 µM)?
Answer: 0.403

Question: What about the relative viability (RERF-LC-KJ; first compound 0.002 µM) of the same compound?
Answer: 0.279

Question: What about the relative viability (RERF-LC-KJ; first compound 0.006325 µM) of the same compound?
Answer: 0.278

Question: What about the relative viability (RERF-LC-KJ; first compound 0.02 µM) of the same compound?
Answer: 0.197

Question: And the relative viability (A-427; first compound 0.0002 µM)?
Answer: 0.176

Question: What about the relative viability (A-427; first compound 0.000632 µM) of the same compound?
Answer: 0.237

Question: And the relative viability (A-427; first compound 0.002 µM)?
Answer: 0.193

Question: And the relative viability (A-427; first compound 0.006325 µM)?
Answer: 0.162

Question: And the relative viability (A-427; first compound 0.02 µM)?
Answer: 0.132

Question: And the relative viability (LXF-289; first compound 0.0002 µM)?
Answer: 0.172

Question: What about the relative viability (LXF-289; first compound 0.000632 µM) of the same compound?
Answer: 0.165

Question: And the relative viability (LXF-289; first compound 0.006325 µM)?
Answer: 0.125

Question: What about the relative viability (LXF-289; first compound 0.02 µM) of the same compound?
Answer: 0.114

Question: And the relative viability (NCI-H1755; first compound 0.0002 µM)?
Answer: 0.62

Question: And the relative viability (NCI-H1755; first compound 0.000632 µM)?
Answer: 0.609

Question: What about the relative viability (NCI-H1755; first compound 0.002 µM) of the same compound?
Answer: 0.46

Question: And the relative viability (NCI-H1755; first compound 0.006325 µM)?
Answer: 0.335

Question: What about the relative viability (NCI-H1755; first compound 0.02 µM) of the same compound?
Answer: 0.373

Question: And the relative viability (NCI-H1734; first compound 0.0002 µM)?
Answer: 0.308

Question: And the relative viability (NCI-H1734; first compound 0.000632 µM)?
Answer: 0.345

Question: And the relative viability (NCI-H1734; first compound 0.002 µM)?
Answer: 0.302

Question: What about the relative viability (NCI-H1734; first compound 0.006325 µM) of the same compound?
Answer: 0.341

Question: What about the relative viability (NCI-H1734; first compound 0.02 µM) of the same compound?
Answer: 0.292

Question: And the relative viability (NCI-H1975; first compound 0.0002 µM)?
Answer: 0.705

Question: And the relative viability (NCI-H1975; first compound 0.000632 µM)?
Answer: 0.367

Question: And the relative viability (NCI-H1975; first compound 0.002 µM)?
Answer: 0.158

Question: And the relative viability (NCI-H1975; first compound 0.006325 µM)?
Answer: 0.133

Question: And the relative viability (NCI-H1975; first compound 0.02 µM)?
Answer: 0.0956

Question: And the relative viability (NCI-H2228; first compound 0.0002 µM)?
Answer: 0.242

Question: What about the relative viability (NCI-H2228; first compound 0.000632 µM) of the same compound?
Answer: 0.169

Question: What about the relative viability (NCI-H2228; first compound 0.002 µM) of the same compound?
Answer: 0.127

Question: What about the relative viability (NCI-H2228; first compound 0.006325 µM) of the same compound?
Answer: 0.168

Question: And the relative viability (NCI-H2228; first compound 0.02 µM)?
Answer: 0.121

Question: What about the relative viability (SK-LU-1; first compound 0.0002 µM) of the same compound?
Answer: 0.297

Question: What about the relative viability (SK-LU-1; first compound 0.000632 µM) of the same compound?
Answer: 0.302

Question: What about the relative viability (SK-LU-1; first compound 0.002 µM) of the same compound?
Answer: 0.308

Question: And the relative viability (SK-LU-1; first compound 0.006325 µM)?
Answer: 0.252

Question: What about the relative viability (SK-LU-1; first compound 0.02 µM) of the same compound?
Answer: 0.217
